# Earlier results as cited in US20150010635A1, “CONTROLLED RELEASE PARTICLES, WOOD TREATMENT AGENT, AND PRODUCING METHOD THEREOF” (Japan EnviroChemicals, Ltd., priority 2011, published 2015).
# Where two headings read alike, the source gives them in different places.
SMILES,water solubility (room temperature),water solubility
"CCN(CC)C(=O)c1cccc(C)c1 [DEET, N,N-diethyl-m-toluamide]",990 ppm,–
"CCOc1ccc(C(C)(C)COCc2cccc(Oc3ccccc3)c2)cc1 [Ethofenprox, 2-(4-ethoxyphenyl)-2-methylpropyl-3-phenoxybenzylether]",–,22.5 ppb
"CC1(C)C(C=C(Cl)Cl)C1C(=O)OCc1cccc(Oc2ccccc2)c1 (stereo not drawn) [Permethrin, 3-phenoxybenzyl(1RS,3RS;1RS,3SR)-3-(2,2-dichlorovinyl)-2,2-dimethylcyclopropanecarboxylate]",–,6 ppb
"CCCC1COC(Cn2cncn2)(c2ccc(Cl)cc2Cl)O1 (stereo not shown) [Propiconazole, 1-[2-(2,4-dichlorophenyl)-4-n-propyl-1,3-dioxolane-2-ylmethyl]-1H-1,2,4-triazole]",110 ppm,–
